Series [1] is described as follows: Microsomal stability assay, human. Format: in vitro ADME. Particulars: metabolic stability, human liver microsomes 0.5 mg/mL, substrate 3 uM. The procedure:
(§1) The micorsomal stability assay is generally performed as follows. Format: 15 compounds (and 1 control verapamil) in 3 different species in duplicate sets Substrate: 3 uM Protein concentration: 0.5 mg/mL (for dog, rat, and human liver microsomes) Cofactor: 1×NADPH-Regenerating system Time-points: 2, 12, 25, 45, and 65 minutes [table] Sample preparation: 25 uL at each timepoint is added to plate with 225 uL quenching solution (50% MeOH, 25% ACN, 25% H2O, and 50 nM […]). After plates are vortexed, centrifuge for 30 minutes. Microsomal solutions: take 400 uL of 20 mg/mL microsomes and add to 13,680 uL 100 mM KPO4 buffer. Using an 8-channel, add 650 uL of this solution to the designated two columns on a short plate. The order should be dog microsomes in columns 1 and 2, rat microsomes in columns 3 and 4, and human microsomes in columns 5 and 6. Keep on ice before use. Place this plate in incubator 1 on the TECAN countertop.
A general note: Microsomes from liver hold many membrane-bound enzymes, among them those of drug oxidation.

Series [2] has as its target wild-type human cardiac sodium channel, hNav1.5 (peak INa) (Homo sapiens, UniProt Q14524). The experiment in a line: Peak INa screening assay (tonic and use-dependent block). Format: cell-based. Particulars: 1 μM. The procedure:
The late sodium current (Late INa) and peak sodium current (Peak INa) assays are performed on an automated electrophysiology platform, QPatch 16× (Sophion Bioscience, Copenhagen, Denmark), which uses the whole cell patch clamp technique to measure currents through the cell membrane of up to 16 cells at a time. The assay uses an HEK293 (human embryonic kidney) cell line heterologously expressing the wild-type human cardiac sodium channel, hNav1.5, purchased from Millipore (Billerica, Mass.). No beta subunits were coexpressed with the Na channel alpha subunit. Cells are maintained with standard tissue culture procedures and stable channel expression is maintained with 400 μg/mL Geneticin in the culture medium. […] Experiments are carried out at 23-25° C. For both the Late INa and Peak INa assays, series resistance compensation is set to 100% and series resistance and whole-cell compensation are performed automatically. Currents are digitized at 25 kHz and low-pass filtered at 12 kHz and 10 kHz for the late and peak INa assays, respectively. Currents through open sodium channels are automatically recorded and stored in the Sophion Bioscience Oracle database (Sophion Bioscience, Copehagen, Denmark). Analysis is performed using QPatch Assay and database software and data are compiled in Excel. Compound stocks are routinely made by the Gilead Sample Bank in plastic vials to 10 mM in dimethyl sulfoxide (DMSO). In some cases, when compounds are not soluble in DMSO, they are made in 100% ethanol. Stocks are sonicated as necessary. […] The intracellular solution used to perfuse the inside of the cells for both the Late INa and Peak INa assays contains: 120 mM CsF, 20 mM CsCl, 5 mM EGTA, 5 mM HEPES and pH adjusted to 7.4 with CsOH. Compounds are diluted in extracellular solution to 1 μM in glass vials and then transferred to glass well plates before robotic addition to the cells. […] Compounds were also evaluated for their effect in several other assays, including their effect on Peak INa. Good separation between the concentrations of test compound to reduce late and peak INa is beneficial to enable separation of the desired effect to reduce late INa-induced electrical and mechanical dysfunction from the undesired effect to reduce peak INa, which can lead to slowing or block of conduction of electrical excitation in the heart. It is contemplated that the compounds of Formula I avoid significant block of peak INa. Since the peak INa in the cells used herein can be very large, introducing artifacts in the recording, the concentration of Na^+ in the bath can be reduced to 20 mM and a nonpermeant cation added to compensate for the Na^+ that was removed to maintain the osmolarity and ionic strength of the solution (see solution details below). Analysis of peak INa generally requires correction for rundown before determining the % block of peak current by the tested compound. […] A low stimulation frequency of 0.1 Hz was used to determine the effect of the test compound when the channel spent most of the time in the resting (closed) state and provides information about Tonic Block (TB). A higher stimulation frequency (3 Hz) was used to measure block of the channel when it spent more time in the activated and inactivated states and provided a measure of Use-Dependent Block (UDB). Use-dependent block refers to the accumulation of block with increased frequency of channel activation. Block of cardiac peak INa by compounds of this invention is increased with an increase in the frequency of stimulation from 0.1 to 1-5 Hz (frequencies encountered either in the normal heart or during tachycardia). It is therefore expected that reduction of peak INa by compounds of this invention will be greater at high heart rates, such as those during tachyarrhythmias, than at normal heart rates. […]

Series [3] can be described thus: Microsomal stability assay, rat. Particulars: metabolic stability, rat liver microsomes 0.5 mg/mL, substrate 3 uM. The series is classed as in vitro ADME. The method, then: as §1
Series [4] deals with wild-type human cardiac sodium channel, hNav1.5 (late INa) (Homo sapiens, UniProt Q14524). The series is described as follows: Late INa screening assay (QPatch whole cell patch clamp). The series is classed as cell-based. The gist of the method:
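Compounds tested at 1 μM final in extracellular solution against tefluthrin (10 μM)-enhanced late current. Automated patch clamp (23-25° C) on HEK293 expressing alpha subunit alone: −120 mV holding, 250 ms depolarization to −20 mV every 10 s. Read-out is percent inhibition of mean current over 225–250 ms.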

Series [5] in a line: Microsomal stability assay, dog. The series is classed as in vitro ADME. The conditions noted are these: metabolic stability, dog liver microsomes 0.5 mg/mL, substrate 3 uM. The procedure:
as §1

[6] abbreviates: tonic block of peak INa, 0.1 Hz, read-out: Peak TB 1 μM.
The mark [7] stands for this setting: use-dependent block of peak INa, 3 Hz, read-out: Peak UDB 1 μM.
[8] abbreviates: percent block of late INa, compound at 1 μM, 10 μM Tefluthrin, HEK293 hNav1.5, read-out: Late INa 1 μM.

Each structure is given as a SMILES string. Read-outs that look alike come from different tables or passages of the source.

From patent US20150329558A1, “FUSED HETEROCYCLIC COMPOUNDS AS ION CHANNEL MODULATORS” (Gilead Sciences, Inc., priority 2011, published 2015) come the findings set out here.

wild-type human cardiac sodium channel, hNav1.5 (late INa), sequence (Q14524 whole entry): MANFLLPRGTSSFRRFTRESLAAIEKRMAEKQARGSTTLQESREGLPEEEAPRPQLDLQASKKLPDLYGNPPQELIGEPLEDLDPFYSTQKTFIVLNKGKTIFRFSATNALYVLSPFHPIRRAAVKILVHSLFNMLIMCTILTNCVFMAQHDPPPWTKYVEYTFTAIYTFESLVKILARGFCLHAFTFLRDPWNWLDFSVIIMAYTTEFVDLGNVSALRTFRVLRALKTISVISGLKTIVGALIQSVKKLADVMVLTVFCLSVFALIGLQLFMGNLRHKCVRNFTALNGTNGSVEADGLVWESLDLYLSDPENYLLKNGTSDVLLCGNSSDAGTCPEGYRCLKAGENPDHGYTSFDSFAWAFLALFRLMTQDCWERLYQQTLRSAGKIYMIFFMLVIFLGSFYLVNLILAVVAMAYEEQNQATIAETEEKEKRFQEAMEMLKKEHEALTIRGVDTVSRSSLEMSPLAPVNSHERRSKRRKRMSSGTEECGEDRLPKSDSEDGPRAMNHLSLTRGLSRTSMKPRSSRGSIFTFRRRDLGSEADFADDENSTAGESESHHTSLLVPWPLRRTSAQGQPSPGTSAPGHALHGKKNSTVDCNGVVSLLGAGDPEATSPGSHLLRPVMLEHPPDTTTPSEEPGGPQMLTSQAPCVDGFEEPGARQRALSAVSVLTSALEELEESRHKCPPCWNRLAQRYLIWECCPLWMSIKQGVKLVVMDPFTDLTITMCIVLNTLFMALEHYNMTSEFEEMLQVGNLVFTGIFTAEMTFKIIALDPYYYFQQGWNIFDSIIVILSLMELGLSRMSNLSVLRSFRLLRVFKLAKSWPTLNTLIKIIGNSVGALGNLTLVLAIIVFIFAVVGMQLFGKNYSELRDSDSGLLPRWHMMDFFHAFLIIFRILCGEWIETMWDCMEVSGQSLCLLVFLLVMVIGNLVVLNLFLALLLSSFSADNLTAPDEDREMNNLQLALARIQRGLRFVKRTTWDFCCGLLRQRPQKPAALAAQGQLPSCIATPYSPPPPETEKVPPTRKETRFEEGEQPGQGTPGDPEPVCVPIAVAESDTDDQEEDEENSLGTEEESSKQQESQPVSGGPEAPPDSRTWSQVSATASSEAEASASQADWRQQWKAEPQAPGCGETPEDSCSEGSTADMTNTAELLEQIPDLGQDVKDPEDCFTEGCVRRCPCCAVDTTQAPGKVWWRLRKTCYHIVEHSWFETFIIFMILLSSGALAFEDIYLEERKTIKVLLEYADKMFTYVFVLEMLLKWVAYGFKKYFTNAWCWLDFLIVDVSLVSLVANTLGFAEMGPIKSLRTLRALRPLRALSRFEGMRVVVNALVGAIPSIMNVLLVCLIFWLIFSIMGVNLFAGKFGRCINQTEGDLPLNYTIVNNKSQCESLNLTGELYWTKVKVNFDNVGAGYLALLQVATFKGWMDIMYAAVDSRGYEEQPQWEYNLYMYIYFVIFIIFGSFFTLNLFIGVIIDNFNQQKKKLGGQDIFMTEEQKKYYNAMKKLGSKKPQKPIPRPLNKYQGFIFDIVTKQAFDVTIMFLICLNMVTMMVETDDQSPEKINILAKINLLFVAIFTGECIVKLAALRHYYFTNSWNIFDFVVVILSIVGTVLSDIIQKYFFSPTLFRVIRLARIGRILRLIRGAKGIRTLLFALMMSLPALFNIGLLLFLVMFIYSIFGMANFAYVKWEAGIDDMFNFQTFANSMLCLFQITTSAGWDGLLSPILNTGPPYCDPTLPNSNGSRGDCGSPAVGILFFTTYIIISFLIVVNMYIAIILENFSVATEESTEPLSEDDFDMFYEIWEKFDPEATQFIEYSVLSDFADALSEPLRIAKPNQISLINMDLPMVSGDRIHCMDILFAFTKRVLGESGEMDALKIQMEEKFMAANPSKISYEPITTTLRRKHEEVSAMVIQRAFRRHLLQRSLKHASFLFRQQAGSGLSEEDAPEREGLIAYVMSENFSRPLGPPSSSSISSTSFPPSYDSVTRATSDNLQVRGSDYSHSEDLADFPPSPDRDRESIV
wild-type human cardiac sodium channel, hNav1.5 (peak INa), sequence (Q14524 whole entry): as above

`O=C1c2cc(-c3ccc(OC(F)(F)F)cc3)ccc2SCN1Cc1ccccn1` [Compound X-1, 3-(pyridin-2-ylmethyl)-6-(4-(trifluoromethoxy)phenyl)-2H-benzo[e][1,3]thiazin-4(3H)-one] showed an MS Human THalf in series [1] of 74 min. For the same molecule, the inhibition at 1 µM worked out at 14% in series [2] (setting [6]), 22% in series [2] (setting [7]) and 47% in series [4] (setting [8]). In series [3], the MS Rat THalf turned out to be 58 min. In series [5], the MS Dog THalf came to 107 min.

In the case of `O=C1c2cc(-c3ccc(OC(F)(F)F)cc3)ccc2SCN1Cc1ncccn1` [Compound X-2, 3-(pyrimidin-2-ylmethyl)-6-(4-(trifluoromethoxy)phenyl)-2H-benzo[e][1,3]thiazin-4(3H)-one], in series [1], the MS Human THalf stood at 142 min. The inhibition at 1 µM in series [2] (setting [6]) worked out at 14%; in series [2] (setting [7]) it was 17%; in series [4] (setting [8]), 55%. The MS Rat THalf in series [3] amounted to 137 min. The molecule further showed an MS Dog THalf in series [5] of 164 min.

On to `O=C1c2cc(-c3ccc(C(F)(F)F)cc3)ccc2SCN1Cc1ccccn1` [Compound X-3, 3-(pyridin-2-ylmethyl)-6-(4-(trifluoromethyl)phenyl)-2H-benzo[e][1,3]thiazin-4(3H)-one], for which the MS Human THalf in series [1] worked out at 36 min. Further, the inhibition at 1 µM in series [2] (setting [6]) is 31%; in series [2] (setting [7]), 35%; in series [4] (setting [8]), 67%. In series [3], this molecule came in with an MS Rat THalf of 45 min. In series [5], the MS Dog THalf is 137 min.

In the case of `Cc1cccc(CCn2ncc3ccc(-c4ccc(OC(F)(F)F)cc4)cc3c2=O)n1` [III-18, 2-(2-(6-methylpyridin-2-yl)ethyl)-7-(4-(trifluoromethoxy)phenyl)phthalazin-1 (2H)-one], in series [1], the MS Human THalf is 25 min. Also, in series [3], the MS Rat THalf came to 20 min. Besides, the inhibition at 1 µM in series [4] (setting [8]) was 37%. This molecule also showed an MS Dog THalf in series [5] of 23 min.

Molecule `O=c1c2cc(-c3ccc(OC(F)(F)F)cc3)ccc2cnn1Cc1cccnc1C1CC1` [III-20] registered an MS Human THalf in series [1] of 41 min. Besides, in series [3], the MS Rat THalf was determined as 54 min. Besides, in series [4] (setting [8]), the inhibition at 1 µM worked out at 28%. Besides, the MS Dog THalf in series [5] came to 61 min.

Take `Cc1cc(C)nc(Cn2ncc3ccc(-c4ccc(OC(F)(F)F)cc4)cc3c2=O)n1` [III-22]: in series [1], the MS Human THalf was found to be 252 min. The MS Rat THalf in series [3] turned out to be 86 min. Besides, the inhibition at 1 µM in series [4] (setting [8]) was 35%. In series [5], this molecule displayed an MS Dog THalf of 191 min.

In the case of `Cc1cc(C)n(CCn2ncc3ccc(-c4ccc(OC(F)(F)F)cc4)cc3c2=O)n1` [III-24, 2-(2-(3,5-dimethyl-1H-pyrazol-1-yl)ethyl)-7-(4-(trifluoromethoxy)phenyl)phthalazin-1 (2H)-one], the MS Human THalf in series [1] came out at 13 min. In series [3], this molecule registered an MS Rat THalf of 9 min. For the same molecule, the inhibition at 1 µM in series [4] (setting [8]) is 28%. Further, the MS Dog THalf in series [5] worked out at 18 min.

With `O=c1c2cc(-c3ccc(OC(F)(F)F)cc3)ccc2cnn1CCc1ccncn1` [III-36, 2-(2-(pyrimidin-4-yl)ethyl)-7-(4-(trifluoromethoxy)phenyl)phthalazin-1 (2H)-one], in series [1], the MS Human THalf was determined as 46 min. In series [3], this molecule had an MS Rat THalf of 32 min. Further, the inhibition at 1 µM in series [4] (setting [8]) was determined as 39%. Further, the MS Dog THalf in series [5] was found to be 31 min.

Turning to `Cc1nonc1Cn1cnc2ccc(-c3ccc(OC(F)(F)F)cc3)cc2c1=O` [IV-3, 3-((4-methyl-1,2,5-oxadiazol-3-yl)methyl)-6-(4-(trifluoromethoxy)phenyl)quinazolin-4(3H)-one], the MS Human THalf in series [1] was found to be 366 min. Besides, the MS Rat THalf in series [3] turned out to be 219 min. Besides, in series [4] (setting [8]), the inhibition at 1 µM worked out at 37%. The MS Dog THalf in series [5] is 54 min.

Regarding `O=C1c2cc(-c3ccc(OC(F)(F)F)cc3)ccc2CCN1Cc1ccccn1` [IX-2, 2-(pyridin-2-ylmethyl)-7-(4-(trifluoromethoxy)phenyl)-3,4-dihydroisoquinolin-1(2H)-one], the MS Human THalf in series [1] was 65 min. The molecule further came in with an MS Rat THalf in series [3] of 106 min. The inhibition at 1 µM in series [4] (setting [8]) was 40%. In series [5], this molecule returned an MS Dog THalf of 88 min.

`O=C(NCc1ccco1)N1CCc2ccc(-c3ccc(C(F)(F)F)cc3)cc2C1` [IX-48, N-(furan-2-ylmethyl)-7-(4-(trifluoromethyl)phenyl)-3,4-dihydroisoquinoline-2(1H)-carboxamide]: the MS Human THalf in series [1] came out at 80 min. The molecule further returned an MS Rat THalf in series [3] of 37 min. The inhibition at 1 µM in series [4] (setting [8]) turned out to be 31%. In series [5], this molecule showed an MS Dog THalf of 149 min.

In series [1], `CN(C(=O)N1CCc2ccc(-c3ccc(C(F)(F)F)cc3)cc2C1)c1ccccc1` [IX-50, N-methyl-N-phenyl-7-(4-(trifluoromethyl)phenyl)-3,4-dihydroisoquinoline-2(1H)-carboxamide] returned an MS Human THalf of 61 min. Besides, the MS Rat THalf in series [3] amounted to 9 min. In addition, in series [4] (setting [8]), the inhibition at 1 µM was found to be 29%. Moreover, the MS Dog THalf in series [5] turned out to be 96 min.

Molecule `O=C(N1CCCC1)N1CCc2ccc(-c3ccc(C(F)(F)F)cc3)cc2C1` [IX-53, pyrrolidin-1-yl(7-(4-(trifluoromethyl)phenyl)-3,4-dihydroisoquinolin-2(1H)-yl)methanone] displayed an MS Human THalf in series [1] of 198 min. This molecule yielded an MS Rat THalf in series [3] of 28 min. For the same molecule, in series [4] (setting [8]), the inhibition at 1 µM stood at 33%. This molecule had an MS Dog THalf in series [5] of 93 min.

In the case of `Cn1ccnc1C(=O)N1CCc2ccc(-c3ccc(C(F)(F)F)cc3)cc2C1` [IX-80, (1-methyl-1H-imidazol-2-yl)(7-(4-(trifluoromethyl)phenyl)-3,4-dihydroisoquinolin-2(1H)-yl)methanone], the MS Human THalf in series [1] turned out to be 170 min. The molecule also registered an MS Rat THalf in series [3] of 7 min. Also, in series [4] (setting [8]), the inhibition at 1 µM turned out to be 40%. For the same molecule, in series [5], the MS Dog THalf stood at 197 min.

For the molecule `O=C(NCc1ncccn1)N1CCc2ccc(-c3ccc(C(F)(F)F)cc3)cc2C1` [IX-89, N-(pyrimidin-2-ylmethyl)-7-(4-(trifluoromethyl)phenyl)-3,4-dihydroisoquinoline-2(1H)-carboxamide], the MS Human THalf in series [1] was determined as 125 min. In series [3], the MS Rat THalf stood at 192 min. For the same molecule, in series [4] (setting [8]), the inhibition at 1 µM was 33%. The molecule further returned an MS Dog THalf in series [5] of 177 min.

Regarding `O=C(N1CCc2ccc(-c3ccc(C(F)(F)F)cc3)cc2C1)N1CC(O)C1` [IX-108, (3-hydroxyazetidin-1-yl)(7-(4-(trifluoromethyl)phenyl)-3,4-dihydroisoquinolin-2(1H)-yl)methanone], the MS Human THalf in series [1] came out at 245 min. In series [3], the MS Rat THalf amounted to 302 min. The inhibition at 1 µM worked out at 30% in series [4] (% inhibition at 1 μM, read-out: NAv1.5*-LATE-) and 30% in series [4] (setting [8]). This molecule also registered an MS Dog THalf in series [5] of 370 min.
